# Test results from patent US20170190671A1, “BIS(ARYL)CATECHOL DERIVATIVES AS HERBICIDES” (E I DU PONT DE NEMOURS AND COMPANY, priority 2014, published 2017).
# Columns and labels:
# Assay in all cases: Test D preemergence
# Format in all cases: in vivo
# Settings in all cases: scale 0 to 100
# [1] = system: Italian ryegrass (Lolium multiflorum)
# Method in brief: (§1)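 Assessment is visual, relative to untreated controls, 14 to 21 days after application, with 100 meaning complete control. Seeds in silt loam receive preemergence spray; seedlings at the 1- to 4-leaf stage receive postemergence spray.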
# [2] = system: blackgrass (Alopecurus myosuroides)
# Method in brief: as §1
# [3] = system: bluegrass (annual bluegrass, Poa annua)
# Method in brief: as §1
# [4] = system: canarygrass (Phalaris minor)
# Method in brief: as §1
# [5] = system: chamomile (scentless chamomile, Matricaria inodora)
# Method in brief: as §1
# [6] = system: deadnettle (henbit deadnettle, Lamium amplexicaule)
# Method in brief: as §1
# [7] = system: downy bromegrass (Bromus tectorum)
# Method in brief: as §1
# [8] = system: field poppy (Papaver rhoeas)
# Method in brief: as §1
# [9] = system: field violet (Viola arvensis)
# Method in brief: as §1
# [10] = system: galium (catchweed bedstraw, Galium aparine)
# Method in brief: as §1
# [11] = system: green foxtail (Setaria viridis)
# Method in brief: as §1
# [12] = system: lambsquarters (Chenopodium album)
# Method in brief: as §1
# [13] = system: oilseed rape (Brassica napus)
# Method in brief: as §1
# [14] = system: pigweed (Amaranthus retroflexus)
# Method in brief: as §1
# [15] = system: speedwell (bird's-eye speedwell, Veronica persica)
# Method in brief: as §1
# [16] = system: wild buckwheat (Polygonum convolvulus)
# Method in brief: as §1
# [17] = system: wild mustard (Sinapis arvensis)
# Method in brief: as §1
# [18] = system: windgrass (Apera spica-venti)
# Method in brief: as §1
# [19] = system: winter barley (Hordeum vulgare)
# Method in brief: as §1
# [20] = system: Russian thistle (Salsola kali)
# Method in brief: as §1
structure (smiles),measurement,setting,value
"N#Cc1cccc(Oc2ncc(Cl)cn2)c1Oc1ncc(Cl)cn1 [Compound 3, 2,3-bis[(5-chloro-2-pyrimidinyl)oxy]benzonitrile]","Plant response rating, Ryegrass, Italian",[1]; 16 g ai/ha,0
same,"Plant response rating, Ryegrass, Italian",[1]; 31 g ai/ha,0
same,"Plant response rating, Ryegrass, Italian",[1]; 62 g ai/ha,50
same,"Plant response rating, Ryegrass, Italian",[1]; 125 g ai/ha,40
same,"Plant response rating, Blackgrass",[2]; 16 g ai/ha,0
same,"Plant response rating, Blackgrass",[2]; 31 g ai/ha,10
same,"Plant response rating, Blackgrass",[2]; 62 g ai/ha,35
same,"Plant response rating, Blackgrass",[2]; 125 g ai/ha,70
same,"Plant response rating, Bluegrass",[3]; 16 g ai/ha,0
same,"Plant response rating, Bluegrass",[3]; 31 g ai/ha,0
same,"Plant response rating, Bluegrass",[3]; 62 g ai/ha,25
same,"Plant response rating, Bluegrass",[3]; 125 g ai/ha,85
same,"Plant response rating, Canarygrass",[4]; 16 g ai/ha,0
same,"Plant response rating, Canarygrass",[4]; 31 g ai/ha,5
same,"Plant response rating, Canarygrass",[4]; 62 g ai/ha,20
same,"Plant response rating, Canarygrass",[4]; 125 g ai/ha,80
same,"Plant response rating, Chamomile",[5]; 16 g ai/ha,10
same,"Plant response rating, Chamomile",[5]; 31 g ai/ha,20
same,"Plant response rating, Chamomile",[5]; 62 g ai/ha,35
same,"Plant response rating, Chamomile",[5]; 125 g ai/ha,85
same,"Plant response rating, Deadnettle",[6]; 16 g ai/ha,70
same,"Plant response rating, Deadnettle",[6]; 31 g ai/ha,95
same,"Plant response rating, Deadnettle",[6]; 62 g ai/ha,100
same,"Plant response rating, Deadnettle",[6]; 125 g ai/ha,100
same,"Plant response rating, Bromegrass, Downy",[7]; 16 g ai/ha,0
same,"Plant response rating, Bromegrass, Downy",[7]; 31 g ai/ha,0
same,"Plant response rating, Bromegrass, Downy",[7]; 62 g ai/ha,5
same,"Plant response rating, Bromegrass, Downy",[7]; 125 g ai/ha,15
same,"Plant response rating, Field Poppy",[8]; 16 g ai/ha,90
same,"Plant response rating, Field Poppy",[8]; 31 g ai/ha,100
same,"Plant response rating, Field Poppy",[8]; 62 g ai/ha,100
same,"Plant response rating, Field Poppy",[8]; 125 g ai/ha,100
same,"Plant response rating, Field Violet",[9]; 16 g ai/ha,100
same,"Plant response rating, Field Violet",[9]; 31 g ai/ha,100
same,"Plant response rating, Field Violet",[9]; 62 g ai/ha,100
same,"Plant response rating, Field Violet",[9]; 125 g ai/ha,100
same,"Plant response rating, Galium",[10]; 16 g ai/ha,20
same,"Plant response rating, Galium",[10]; 31 g ai/ha,100
same,"Plant response rating, Galium",[10]; 62 g ai/ha,100
same,"Plant response rating, Galium",[10]; 125 g ai/ha,100
same,"Plant response rating, Foxtail, Green",[11]; 16 g ai/ha,10
same,"Plant response rating, Foxtail, Green",[11]; 31 g ai/ha,60
same,"Plant response rating, Foxtail, Green",[11]; 62 g ai/ha,100
same,"Plant response rating, Foxtail, Green",[11]; 125 g ai/ha,100
same,"Plant response rating, Lambsquarters",[12]; 16 g ai/ha,10
same,"Plant response rating, Lambsquarters",[12]; 31 g ai/ha,95
same,"Plant response rating, Lambsquarters",[12]; 62 g ai/ha,100
same,"Plant response rating, Lambsquarters",[12]; 125 g ai/ha,100
same,"Plant response rating, Oilseed Rape",[13]; 16 g ai/ha,10
same,"Plant response rating, Oilseed Rape",[13]; 31 g ai/ha,25
same,"Plant response rating, Oilseed Rape",[13]; 62 g ai/ha,35
same,"Plant response rating, Oilseed Rape",[13]; 125 g ai/ha,100
same,"Plant response rating, Pigweed",[14]; 16 g ai/ha,100
same,"Plant response rating, Pigweed",[14]; 31 g ai/ha,100
same,"Plant response rating, Pigweed",[14]; 62 g ai/ha,100
same,"Plant response rating, Pigweed",[14]; 125 g ai/ha,100
same,"Plant response rating, Speedwell",[15]; 16 g ai/ha,70
same,"Plant response rating, Speedwell",[15]; 31 g ai/ha,100
same,"Plant response rating, Speedwell",[15]; 62 g ai/ha,100
same,"Plant response rating, Speedwell",[15]; 125 g ai/ha,100
same,"Plant response rating, Buckwheat, Wild",[16]; 16 g ai/ha,0
same,"Plant response rating, Buckwheat, Wild",[16]; 31 g ai/ha,30
same,"Plant response rating, Buckwheat, Wild",[16]; 62 g ai/ha,75
same,"Plant response rating, Buckwheat, Wild",[16]; 125 g ai/ha,100
same,"Plant response rating, Mustard, Wild",[17]; 16 g ai/ha,15
same,"Plant response rating, Mustard, Wild",[17]; 31 g ai/ha,60
same,"Plant response rating, Mustard, Wild",[17]; 62 g ai/ha,95
same,"Plant response rating, Mustard, Wild",[17]; 125 g ai/ha,100
same,"Plant response rating, Windgrass",[18]; 16 g ai/ha,10
same,"Plant response rating, Windgrass",[18]; 31 g ai/ha,15
same,"Plant response rating, Windgrass",[18]; 62 g ai/ha,50
same,"Plant response rating, Windgrass",[18]; 125 g ai/ha,80
same,"Plant response rating, Barley, Winter",[19]; 16 g ai/ha,0
same,"Plant response rating, Barley, Winter",[19]; 31 g ai/ha,0
same,"Plant response rating, Barley, Winter",[19]; 62 g ai/ha,20
same,"Plant response rating, Barley, Winter",[19]; 125 g ai/ha,70
"Fc1cccc(Oc2ncc(C(F)(F)F)cn2)c1Oc1ncc(Cl)cn1 [Compound 42, 5-chloro-2-[2-fluoro-6-[[5-(trifluoromethyl)-2-pyrimidinyl]oxy]phenoxy]pyrimidine]","Plant response rating, Ryegrass, Italian",[1]; 16 g ai/ha,0
same,"Plant response rating, Ryegrass, Italian",[1]; 31 g ai/ha,0
same,"Plant response rating, Ryegrass, Italian",[1]; 62 g ai/ha,35
same,"Plant response rating, Ryegrass, Italian",[1]; 125 g ai/ha,70
same,"Plant response rating, Russian Thistle",[20]; 16 g ai/ha,0
same,"Plant response rating, Russian Thistle",[20]; 31 g ai/ha,20
same,"Plant response rating, Russian Thistle",[20]; 62 g ai/ha,15
same,"Plant response rating, Russian Thistle",[20]; 125 g ai/ha,55
same,"Plant response rating, Blackgrass",[2]; 16 g ai/ha,0
same,"Plant response rating, Blackgrass",[2]; 31 g ai/ha,10
same,"Plant response rating, Blackgrass",[2]; 62 g ai/ha,35
same,"Plant response rating, Blackgrass",[2]; 125 g ai/ha,75
same,"Plant response rating, Bluegrass",[3]; 16 g ai/ha,10
same,"Plant response rating, Bluegrass",[3]; 31 g ai/ha,0
same,"Plant response rating, Bluegrass",[3]; 62 g ai/ha,45
same,"Plant response rating, Bluegrass",[3]; 125 g ai/ha,90
same,"Plant response rating, Canarygrass",[4]; 16 g ai/ha,15
same,"Plant response rating, Canarygrass",[4]; 31 g ai/ha,35
same,"Plant response rating, Canarygrass",[4]; 62 g ai/ha,35
same,"Plant response rating, Canarygrass",[4]; 125 g ai/ha,100
same,"Plant response rating, Deadnettle",[6]; 16 g ai/ha,70
same,"Plant response rating, Deadnettle",[6]; 31 g ai/ha,85
same,"Plant response rating, Deadnettle",[6]; 62 g ai/ha,100
same,"Plant response rating, Deadnettle",[6]; 125 g ai/ha,100
same,"Plant response rating, Bromegrass, Downy",[7]; 16 g ai/ha,0
same,"Plant response rating, Bromegrass, Downy",[7]; 31 g ai/ha,10
same,"Plant response rating, Bromegrass, Downy",[7]; 62 g ai/ha,50
same,"Plant response rating, Bromegrass, Downy",[7]; 125 g ai/ha,65
same,"Plant response rating, Field Violet",[9]; 16 g ai/ha,25
same,"Plant response rating, Field Violet",[9]; 31 g ai/ha,100
same,"Plant response rating, Field Violet",[9]; 62 g ai/ha,100
same,"Plant response rating, Field Violet",[9]; 125 g ai/ha,100
same,"Plant response rating, Galium",[10]; 16 g ai/ha,65
same,"Plant response rating, Galium",[10]; 31 g ai/ha,70
same,"Plant response rating, Galium",[10]; 62 g ai/ha,100
same,"Plant response rating, Galium",[10]; 125 g ai/ha,100
same,"Plant response rating, Foxtail, Green",[11]; 16 g ai/ha,10
same,"Plant response rating, Foxtail, Green",[11]; 31 g ai/ha,60
same,"Plant response rating, Foxtail, Green",[11]; 62 g ai/ha,100
same,"Plant response rating, Foxtail, Green",[11]; 125 g ai/ha,100
same,"Plant response rating, Lambsquarters",[12]; 16 g ai/ha,85
same,"Plant response rating, Lambsquarters",[12]; 31 g ai/ha,100
same,"Plant response rating, Lambsquarters",[12]; 62 g ai/ha,100
same,"Plant response rating, Lambsquarters",[12]; 125 g ai/ha,100
same,"Plant response rating, Oilseed Rape",[13]; 16 g ai/ha,50
same,"Plant response rating, Oilseed Rape",[13]; 31 g ai/ha,70
same,"Plant response rating, Oilseed Rape",[13]; 62 g ai/ha,100
same,"Plant response rating, Oilseed Rape",[13]; 125 g ai/ha,100
same,"Plant response rating, Pigweed",[14]; 16 g ai/ha,100
same,"Plant response rating, Pigweed",[14]; 31 g ai/ha,100
same,"Plant response rating, Pigweed",[14]; 62 g ai/ha,100
same,"Plant response rating, Pigweed",[14]; 125 g ai/ha,100
same,"Plant response rating, Buckwheat, Wild",[16]; 16 g ai/ha,0
same,"Plant response rating, Buckwheat, Wild",[16]; 31 g ai/ha,0
same,"Plant response rating, Buckwheat, Wild",[16]; 62 g ai/ha,100
same,"Plant response rating, Buckwheat, Wild",[16]; 125 g ai/ha,100
same,"Plant response rating, Mustard, Wild",[17]; 16 g ai/ha,70
same,"Plant response rating, Mustard, Wild",[17]; 31 g ai/ha,65
same,"Plant response rating, Mustard, Wild",[17]; 62 g ai/ha,85
same,"Plant response rating, Mustard, Wild",[17]; 125 g ai/ha,100
same,"Plant response rating, Windgrass",[18]; 16 g ai/ha,15
same,"Plant response rating, Windgrass",[18]; 31 g ai/ha,60
same,"Plant response rating, Windgrass",[18]; 62 g ai/ha,90
same,"Plant response rating, Windgrass",[18]; 125 g ai/ha,100
same,"Plant response rating, Barley, Winter",[19]; 16 g ai/ha,0
same,"Plant response rating, Barley, Winter",[19]; 31 g ai/ha,0
same,"Plant response rating, Barley, Winter",[19]; 62 g ai/ha,15
same,"Plant response rating, Barley, Winter",[19]; 125 g ai/ha,80
